Common to all, as to assay type: cell-based
The target in one assay is DYRK1A (Homo sapiens (Human), UniProt Q13627). As to the kind of experiment: DYRK1A activity Tau assay: pSer396 Tau in SH-SY5Y cells by ELISA / western blot. Conditions: overnight (16-18 h) exposure.
Assay [1] deals with primary human fibroblasts derived from IPF patients (LL29 cells). As to the kind of experiment: Inhibition of the fibrotic process: αSMA staining in TGF-β1 treated LL29 fibroblasts. Conditions: Fibroblast, 72 h, TGF-β1 10 ng/ml, 3 days, read-out: Inhibition of fibrosis IC50.
Experimental: The above synthesized compounds were screened using primary human fibroblasts (derived from IPF patients) treated with TGF-β1 to determine their ability to inhibit the fibrotic process.
Each compound was dissolved in DMSO as a 10 mM stock and used to prepare compound source plates. […] LL29 cells were plated at 1,000 cells/well in 50 μl/well serum free F12 medium. […] Wells untreated with TGF-β1 were used as control for normalization and calculating IC50 values. Cells were incubated at 37° C. and 5% CO2 for 3 days. Cells were fixed using 4% formaldehyde (Electron Microscopy Sciences), washed 3 times with PBS followed by blocking and permeabilization using 3% Bovine Serum Albumin (BSA; Sigma) and 0.3% Triton X-100 (Sigma) in PBS. […] The IC50 values are reported.
Assay [2] deals with primary human mesenchymal stem cells (hMSCs). As to the kind of experiment: Chondrogenesis assay in primary human mesenchymal stem cells, nodule count vs TGF-β3 positive control. Conditions: 6 days; for Conc (nM) of Max. activity: 6-point dose-response 2700 nM to 10 nM, dose at which maximum chondrogenesis activity was reached; for Max. Activity as % TGF-β3 activity: relative to TGF-β3 (10 ng/mL) positive control; for Conc (nM) of 100% TGF-β3 activity: concentration required to induce chondrogenesis equivalent to TGF-β3 (10 ng/mL). From the text:
The above synthesized compounds were screened using primary human mesenchymal stem cells (hMSCs) to determine their ability to induce chondrogenesis (process by which cartilage is developed).
Human Mesenchymal Stem Cell Culture:
Primary human mesenchymal stem cells (hMSCs) were purchased from Lonza (Walkersville, Md.) and expanded in Mesenchymal Stem Cell Growth Media (Lonza). Cells between passage 3 and 6 were used for the experiments.
Number of nodules in each well was normalized to the average of 3 DMSO treated wells on the same plate using Excel (Microsoft Inc.). The normalized averages (fold change over DMSO) of 3 replicate wells for each compound concentration were calculated. Due to solubility limitations of some of the compounds, curve fitting was incomplete leading to inaccurate EC50 determinations.
Using TGF-β3 as a positive control, the concentration of test compounds required to induce equivalent levels of chondrogenesis is reported. In addition, the maximum activity of each compound and the respective dose that each compound reached maximum chondrogenesis activity is reported.

The test system of assay [3] is Wnt activity (Wnt-responsive SP5 promoter luciferase reporter in SW480 cells). Put plainly: Wnt activity reporter assay: SW480 cells with SP5 promoter-driven firefly luciferase. Conditions: Homo sapiens, 24 h after compound addition, read-out: Wnt inhibition. In a few lines: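 SW480 cells (APC-mutant colon line) stably carrying a lentiviral SP5-promoter (eight TCF/LEF sites) firefly luciferase reporter were plated at ~10,000 cells/well. Luminescence was normalized to DMSO-only cells and used for IC50.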
For orientation: In a reporter assay the amount or activity of a reporter protein is the signal.

Text for DYRK1A: In another example, in vitro assays for DYRK1A biological activity may be used, e.g. regulation of microtubule-associated protein tau (MAPT/Tau) phosphorylation in neuronal cell line such as the human SH-SY5Y neuroblastoma cell line. Assays for DYRK1a-regulated level of phosphorylation can include monitoring levels of basal pSer396 Tau, which can be measured, for example, by serial dilutions of a candidate inhibitor composition using a ten micromolar top concentration and detected by ELISA or Western Blotting. An exemplary assay for DYRK-1a-regulated phosphorylation uses the SH-SY5Y cells cultured in a 96 well plate format for a period of time sufficient to stabilize microtubules and Tau phosphorylation, usually at least 2 days, then treated with a 1/3 serial dilution of compounds overnight and lysed. The cell lysate is resolved by SDS PAGE, then transferred to nitrocellulose and probed with an antibody specific for pSer396 Tau.
In a further example, the activity of a candidate compound can be measured by ELISA by adding the lysate mentioned above onto total Tau-coated plates and detected with a specific pSer396 antibody.

A word on the EC50: it is the concentration at which the effect is half-maximal. High values mean lower potency in that assay, low ones higher potency in that assay. As to `Cc1cncc(NC(=O)c2n[nH]c3ccc(-c4cncc(CN5CCCCC5)c4)cc23)c1` [Compound 64, N-(5-Methylpyridin-3-yl)-5-(5-(piperidin-1-ylmethyl)pyridin-3-yl)-1H-indazole-3-carboxamide], the EC50 on DYRK1A amounted to 2 nM. In addition, the figures for the IC50 in assay [1] and in assay [3] were 265 nM and 59 nM, respectively. In addition, in assay [2], the “Conc (nM) of Max. activity” value is reported as 2700 nM. Further, the “Max. Activity as % TGF-β3 activity” value in assay [2] worked out at 83%.

For the compound `Cc1ccc(NC(=O)c2n[nH]c3ccc(-c4cncc(CN5CCCCC5)c4)cc23)cn1` [Compound 65, N-(6-Methylpyridin-3-yl)-5-(5-(piperidin-1-ylmethyl)pyridin-3-yl)-1H-indazole-3-carboxamide], the midpoint of the response at DYRK1A, the EC50, lay at 1 nM. In addition, the IC50 in assay [1] is 172 nM. In assay [2], the “Conc (nM) of Max. activity” value is 900 nM, the “Conc (nM) of 100% TGF-β3 activity” value is reported as 900 nM and the “Max. Activity as % TGF-β3 activity” value came to 117%. Also, the IC50 in assay [3] was 57 nM.

In the case of `CC(C)Oc1ccc(NC(=O)c2n[nH]c3ccc(-c4cncc(CN5CCCCC5)c4)cc23)cn1` [Compound 67, N-(6-Isopropoxypyridin-3-yl)-5-(5-(piperidin-1-ylmethyl)pyridin-3-yl)-1H-indazole-3-carboxamide], on DYRK1A, the EC50 stood at 3 nM. The IC50 in assay [1] is 251 nM. Further, in assay [2], the “Conc (nM) of Max. activity” value was 2700 nM and the “Max. Activity as % TGF-β3 activity” value is recorded as 82%. The IC50 in assay [3] stood at 41 nM.

Regarding `CC(C)CC(=O)Nc1ccncc1NC(=O)c1n[nH]c2ccc(-c3cncc(CN4CCCCC4)c3)cc12` [Compound 73, N-(4-(3-Methylbutanamido)pyridin-3-yl)-5-(5-(piperidin-1-ylmethyl)pyridin-3-yl)-1H-indazole-3-carboxamide], a half-maximal response at DYRK1A (EC50) required 57 nM. Also, the IC50 in assay [1] amounted to 1870 nM. In addition, in assay [2], the “Conc (nM) of Max. activity” value worked out at 900 nM and the “Max. Activity as % TGF-β3 activity” value is 65%. Also, the IC50 in assay [3] came out at 25 nM.

Consider `O=C(Nc1ccnc(C(F)(F)F)c1)c1n[nH]c2ccc(-c3cncc(CN4CCCCC4)c3)cc12` [Compound 80, 5-(5-(Piperidin-1-ylmethyl)pyridin-3-yl)-N-(2-(trifluoromethyl)pyridin-4-yl)-1H-indazole-3-carboxamide], for which a half-maximal response on DYRK1A (EC50) required 36 nM. Further, the IC50 in assay [1] was determined as 303 nM. In assay [2], the “Conc (nM) of Max. activity” value was 900 nM and the “Max. Activity as % TGF-β3 activity” value came out at 20%. In assay [3], the IC50 turned out to be 36 nM.

Turning to `CC1CCN(Cc2cncc(-c3ccc4[nH]nc(C(=O)Nc5cccnc5)c4c3)c2)CC1` [Compound 82, 5-(5-((4-Methylpiperidin-1-yl)methyl)pyridin-3-yl)-N-(pyridin-3-yl)-1H-indazole-3-carboxamide], the midpoint of the response on DYRK1A, the EC50, lay at 2 nM. Also, the IC50 in assay [1] worked out at 129 nM. Further, in assay [2], the “Conc (nM) of Max. activity” value turned out to be 900 nM, the “Conc (nM) of 100% TGF-β3 activity” value is on record as 900 nM and the “Max. Activity as % TGF-β3 activity” value was 109%. Further, in assay [3], the IC50 came to 7 nM.

Consider `CC(C)Oc1ccc(NC(=O)c2n[nH]c3ccc(-c4cncc(CN5CC6CC(C5)O6)c4)cc23)cn1` [Compound 85, 5-(5-((6-Oxa-3-azabicyclo[3.1.1]heptan-3-yl)methyl)pyridin-3-yl)-N-(6-isopropoxypyridin-3-yl)-1H-indazole-3-carboxamide], for which the EC50 on DYRK1A stood at 4 nM. Further, the IC50 was 180 nM in assay [1] and 61 nM in assay [3]. Moreover, in assay [2], the “Conc (nM) of Max. activity” value was 900 nM. The “Max. Activity as % TGF-β3 activity” value in assay [2] is listed as 49%.

For `CC(C)NC(=O)c1n[nH]c2ccc(-c3cncc(CN4CCC(F)(F)CC4)c3)cc12` [Compound 132, 5-(5-((4,4-Difluoropiperidin-1-yl)methyl)pyridin-3-yl)-N-isopropyl-1H-indazole-3-carboxamide], at DYRK1A, the response was half-maximal at 6 nM (EC50). Also, the IC50 in assay [1] worked out at 237 nM. For the same compound, in assay [2], the “Conc (nM) of Max. activity” value turned out to be 2700 nM and the “Conc (nM) of 100% TGF-β3 activity” value stood at 2700 nM. In addition, in assay [3], the IC50 was 47 nM.

Compound `C[C@@H]1CN(c2ccc(NC(=O)c3n[nH]c4ccc(-c5cncc(CN6CCCCC6)c5)cc34)cn2)C[C@H](C)O1` [Compound 1141, N-(6-((2S,6R)-2,6-dimethylmorpholino)pyridin-3-yl)-5-(5-(piperidin-1-ylmethyl)pyridin-3-yl)-1H-indazole-3-carboxamide] had an EC50 on DYRK1A of 1 nM. In addition, the IC50 in assay [1] was determined as 468 nM. Further, in assay [2], the “Conc (nM) of Max. activity” value was determined as 2700 nM, the “Conc (nM) of 100% TGF-β3 activity” value is 2700 nM and the “Max. Activity as % TGF-β3 activity” value stood at 129%. Further, the IC50 in assay [3] was 3 nM.
